In patent publication US20230312473A1, “PROCESS FOR THE PREPARATION OF BIHETEROARYL COMPOUNDS AND CRYSTAL FORMS THEREOF” (Genentech, Inc., priority 2020, published 2023):
Where two headings read alike, the source gives them in different places.

Columns and labels:
[1] = Solubility of compound 1 in the solvent under evaluation at 22° C. and 65° C. (crystallization study); format: physicochemical
Method: Crystalline compound 1 was evaluated. Crystallization study procedures were done based on the solubility of compound 1 in the solvent under evaluation as follows.
The results are presented below in Table 10 where: * refers to compound 1 prepared as described above; and ** refers to compound 1 prepared as described above and further incubated at 100% relative humidity at 22° C. for 17 days.

[2] = Solubility of compound I free base in MIBK; format: physicochemical
Method: In one aspect, the dissolution solvent is MIBK. The solubility of compound I free base in MIBK is about 8.2 wt. % at 90° C., about 5.2 wt. % at 80° C., about 4 wt. % at 70° C., about 3 wt. % at 60° C., about 2 wt. % at 50° C., about 1.4 wt. % at 40° C., about 1 wt. % at 30° C., about 0.9 wt. % at 20° C., about 0.6 wt. % at 10° C., about 0.4 wt. % at 0° C., and about 0.2 wt. % at −10° C. In some aspects, a 6.5 wt. % to 7.5 wt. % solution of compound I free base in MIBK is formed at 90° C. Following filtration at about 90° C., the solution may be cooled to about 75° C. following by addition of seed crystals to form a slurry, and optionally held (aged) at that temperature for a period of time, such as from about 0.5 to about 2 hours. The slurry may then be cooled, such as for instance to about −10° C., and aged at that temperature for a period of time, such as from about 2 to about 10 hours. Solid crystallized compound I may be isolated, and washed with chilled MIBK (e.g., at about 0° C. to about 10° C.) and then with chilled alcohol, such as ethanol (e.g., at about 0° C. to about 10° C.). Crystalline compound I may be dried at a temperature of from about 40° C. to about 70° C. (e.g., 60° C.) under vacuum (e.g., about 20 mbar or less) until a constant weight is achieved.

**Q.** With Nc1ncc(-c2cc(N3C[C@@H]4C[C@H]3CO4)nc(N3CCC(F)(F)C3)n2)cc1OC(F)F [Compound 1, 5-(6-((1S,4S)-2-oxa-5-azabicyclo[2.2.1]heptan-5-yl)-2-(3,3-difluoropyrrolidin-1-yl)pyrimidin-4-yl)-3-(difluoromethoxy)pyridin-2-amine] as the compound, how does the solubility ([1]; Dimethyl carbonate, 65 °C, organic solvent or mixture, solvent: Dimethyl carbonate, read-out: Solubility at 65° C.) read?
**A.** > 50 mg/mL

**Q.** What about the solubility ([1]; Dioxane, 22 °C, organic solvent or mixture, thermodynamic from solid, solvent: Dioxane, read-out: Solubility at 22° C.) of the same compound?
**A.** > 50 mg/mL

**Q.** What about the solubility ([1]; Ethyl acetate, 22 °C, organic solvent or mixture, thermodynamic from solid, solvent: Ethyl acetate, read-out: Solubility at 22° C.) of the same compound?
**A.** < 50 mg/mL

**Q.** And the solubility ([1]; Ethyl acetate, 65 °C, organic solvent or mixture, solvent: Ethyl acetate, read-out: Solubility at 65° C.)?
**A.** > 50 mg/mL

**Q.** What about the solubility ([1]; Isopropyl acetate, 22 °C, organic solvent or mixture, thermodynamic from solid, solvent: Isopropyl acetate, read-out: Solubility at 22° C.) of the same compound?
**A.** < 50 mg/mL

**Q.** And the solubility ([1]; Isopropyl acetate, 65 °C, organic solvent or mixture, solvent: Isopropyl acetate, read-out: Solubility at 65° C.)?
**A.** < 50 mg/mL

**Q.** And the solubility ([1]; MEK, 22 °C, organic solvent or mixture, thermodynamic from solid, solvent: MEK, read-out: Solubility at 22° C.)?
**A.** < 50 mg/mL

**Q.** What about the solubility ([1]; MEK, 65 °C, organic solvent or mixture, thermodynamic from solid, solvent: MEK, read-out: Solubility at 65° C.) of the same compound?
**A.** < 50 mg/mL

**Q.** What about the solubility ([1]; MIBK, 22 °C, organic solvent or mixture, thermodynamic from solid, solvent: MIBK, read-out: Solubility at 22° C.) of the same compound?
**A.** < 50 mg/mL

**Q.** What about the solubility ([1]; MIBK, 65 °C, organic solvent or mixture, thermodynamic from solid, solvent: MIBK, read-out: Solubility at 65° C.) of the same compound?
**A.** < 50 mg/mL

**Q.** And the solubility ([1]; MTBE, 22 °C, organic solvent or mixture, thermodynamic from solid, solvent: MTBE, read-out: Solubility at 22° C.)?
**A.** < 50 mg/mL

**Q.** And the solubility ([1]; MTBE, 65 °C, organic solvent or mixture, thermodynamic from solid, solvent: MTBE, read-out: Solubility at 65° C.)?
**A.** < 50 mg/mL

**Q.** And the solubility ([1]; Methanol, 22 °C, organic solvent or mixture, thermodynamic from solid, solvent: Methanol, read-out: Solubility at 22° C.)?
**A.** < 50 mg/mL

**Q.** And the solubility ([1]; Methanol, 65 °C, organic solvent or mixture, thermodynamic from solid, solvent: Methanol, read-out: Solubility at 65° C.)?
**A.** < 50 mg/mL

**Q.** And the solubility ([1]; NMP, 22 °C, organic solvent or mixture, thermodynamic from solid, solvent: NMP, read-out: Solubility at 22° C.)?
**A.** > 200 mg/mL

**Q.** And the solubility ([1]; THF, 22 °C, organic solvent or mixture, thermodynamic from solid, solvent: THF, read-out: Solubility at 22° C.)?
**A.** > 50 mg/mL

**Q.** And the solubility ([1]; Toluene, 22 °C, organic solvent or mixture, thermodynamic from solid, solvent: Toluene, read-out: Solubility at 22° C.)?
**A.** < 50 mg/mL

**Q.** What about the solubility ([1]; Toluene, 65 °C, organic solvent or mixture, thermodynamic from solid, solvent: Toluene, read-out: Solubility at 65° C.) of the same compound?
**A.** < 50 mg/mL

**Q.** What about the solubility ([1]; acetone, 22 °C, organic solvent or mixture, thermodynamic from solid, solvent: Acetone, read-out: Solubility at 22° C.) of the same compound?
**A.** < 50 mg/mL

**Q.** And the solubility ([1]; acetone, 65 °C, organic solvent or mixture, solvent: Acetone, read-out: Solubility at 65° C.)?
**A.** > 50 mg/mL

**Q.** What about the solubility ([1]; butanol, 22 °C, organic solvent or mixture, thermodynamic from solid, solvent: Butanol, read-out: Solubility at 22° C.) of the same compound?
**A.** < 50 mg/mL

**Q.** And the solubility ([1]; butanol, 65 °C, organic solvent or mixture, solvent: Butanol, read-out: Solubility at 65° C.)?
**A.** < 50 mg/mL

**Q.** What about the solubility ([1]; ethanol, 22 °C, organic solvent or mixture, thermodynamic from solid, solvent: Ethanol, read-out: Solubility at 22° C.) of the same compound?
**A.** < 50 mg/mL

**Q.** And the solubility ([1]; ethanol, 65 °C, organic solvent or mixture, solvent: Ethanol, read-out: Solubility at 65° C.)?
**A.** < 50 mg/mL

**Q.** What about the solubility ([1]; i-butanol, 22 °C, organic solvent or mixture, thermodynamic from solid, solvent: i-Butanol, read-out: Solubility at 22° C.) of the same compound?
**A.** < 50 mg/mL

**Q.** What about the solubility ([1]; i-butanol, 65 °C, organic solvent or mixture, thermodynamic from solid, solvent: i-Butanol, read-out: Solubility at 65° C.) of the same compound?
**A.** < 50 mg/mL

**Q.** And the solubility ([1]; isopropanol, 22 °C, organic solvent or mixture, thermodynamic from solid, solvent: Isopropanol, read-out: Solubility at 22° C.)?
**A.** < 50 mg/mL

**Q.** And the solubility ([1]; isopropanol, 65 °C, organic solvent or mixture, solvent: Isopropanol, read-out: Solubility at 65° C.)?
**A.** < 50 mg/mL

**Q.** And the solubility ([1]; n-Heptane, 22 °C, organic solvent or mixture, thermodynamic from solid, solvent: n-Heptane, read-out: Solubility at 22° C.)?
**A.** < 50 mg/mL

**Q.** And the solubility ([1]; n-Heptane, 65 °C, organic solvent or mixture, thermodynamic from solid, solvent: n-Heptane, read-out: Solubility at 65° C.)?
**A.** < 50 mg/mL

**Q.** And the solubility ([1]; nitromethane, 22 °C, organic solvent or mixture, thermodynamic from solid, solvent: Nitromethane, read-out: Solubility at 22° C.)?
**A.** < 50 mg/mL

**Q.** What about the solubility ([1]; nitromethane, 65 °C, organic solvent or mixture, thermodynamic from solid, solvent: Nitromethane, read-out: Solubility at 65° C.) of the same compound?
**A.** > 50 mg/mL

**Q.** What about the solubility ([1]; propanol, 22 °C, organic solvent or mixture, thermodynamic from solid, solvent: Propanol, read-out: Solubility at 22° C.) of the same compound?
**A.** < 50 mg/mL

**Q.** What about the solubility ([1]; propanol, 65 °C, organic solvent or mixture, thermodynamic from solid, solvent: Propanol, read-out: Solubility at 65° C.) of the same compound?
**A.** < 50 mg/mL

**Q.** And the solubility ([1]; s-butanol, 22 °C, organic solvent or mixture, thermodynamic from solid, solvent: s-butanol, read-out: Solubility at 22° C.)?
**A.** < 50 mg/mL

**Q.** And the solubility ([1]; s-butanol, 65 °C, organic solvent or mixture, thermodynamic from solid, solvent: s-butanol, read-out: Solubility at 65° C.)?
**A.** < 50 mg/mL

**Q.** And the solubility ([1]; water, 22 °C, water, thermodynamic from solid, solvent: Water, read-out: Solubility at 22° C.)?
**A.** < 50 mg/mL

**Q.** What about the solubility ([1]; water, 65 °C, water, thermodynamic from solid, solvent: Water, read-out: Solubility at 65° C.) of the same compound?
**A.** < 50 mg/mL

**Q.** And the “solubility in MIBK” value ([2]; 0° C.)?
**A.** about 0.4 wt. %

**Q.** What about the “solubility in MIBK” value ([2]; 10° C.) of the same compound?
**A.** about 0.6 wt. %

**Q.** And the “solubility in MIBK” value ([2]; 20° C.)?
**A.** about 0.9 wt. %

**Q.** What about the “solubility in MIBK” value ([2]; 30° C.) of the same compound?
**A.** about 1 wt. %

**Q.** What about the “solubility in MIBK” value ([2]; 40° C.) of the same compound?
**A.** about 1.4 wt. %

**Q.** And the “solubility in MIBK” value ([2]; 50° C.)?
**A.** about 2 wt. %

**Q.** What about the “solubility in MIBK” value ([2]; 60° C.) of the same compound?
**A.** about 3 wt. %

**Q.** What about the “solubility in MIBK” value ([2]; 70° C.) of the same compound?
**A.** about 4 wt. %

**Q.** And the “solubility in MIBK” value ([2]; 80° C.)?
**A.** about 5.2 wt. %

**Q.** What about the “solubility in MIBK” value ([2]; 90° C.) of the same compound?
**A.** about 8.2 wt. %

**Q.** And the “solubility in MIBK” value ([2]; −10° C.)?
**A.** about 0.2 wt. %
